In this assay the target is T1, human mGluR4 (Homo sapiens, UniProt Q14833).
T1 construct: expressed in transfected cells; host or cells: Chinese Hamster Ovary (CHO) cells
Briefly: human mGluR4 potentiation assay, CHO cells, Fluo-4 calcium fluorescence, agonist EC20. It is filed as cell-based. The note with it: for Emax: CHO, maximum extent of potentiation, human mGluR4, read-out: GluMax; for EC50: potentiation of human mGluR4 response to EC20 agonist, read-out: hEC50. As to the method: The disclosed compounds and compositions can be evaluated for their ability to act as a potentiator of metabotropic glutamate receptor activity, in particular mGluR4 activity, by any suitable known methodology known in the art. For example, Chinese Hamster Ovary (CHO) cells transfected with human mGluR4 or HEK cells co-transfected with rat mGluR4 and the G-protein regulated Inwardly Rectifying Potassium channel (GIRK) were plated in clear bottom assay plates for assay in a Hamamatsu FDSS Fluorometric Plate Reader. The cells were loaded with either the Ca2+-sensitive fluorescent dye Fluo-4 or the thallium responsive dye BTC, AM and the plates were washed and placed into a suitable kinetic plate reader. For human mGluR4 assays, a fluorescence baseline was established for 3-5 seconds, the disclosed compounds were then added to the cells, and the response in cells was measured. Approximately two and a half minutes later, a concentration of mGluR4 agonist (e.g. glutamate or L-AP4) eliciting approximately 20% (EC20) of the maximal agonist response was added to the cells, and the response was measured. Two minutes later, a concentration of mGluR4 agonist (e.g. glutamate or L-AP4) eliciting 80% (EC80) of the maximal agonist response was added to the cells, and the response was measured. For rat mGluR4/GIRK experiments, a baseline was established for approximately five seconds, disclosed compounds were added, and either an EC20 or EC80 concentration of agonist was added approximately two and one half minutes later. Potentiation of the agonist response of mGluR4 by the disclosed compounds was observed as an increase in response to the EC20 concentration of agonist in the presence of compound compared to the response to agonist in the absence of compound. Similarly, antagonism of the agonist response of mGluR4 by the disclosed compounds was observed as a decrease in response to the EC80 concentration of agonist in the presence of compound compared to the response to agonist in the absence of compound.
The above described assay operated in two modes. In the first mode, a range of concentrations of the disclosed compounds are added to cells, followed by a single fixed concentration of agonist. If the compound acts as a potentiatior, an EC50 value for potentiation and a maximum extent of potentiation by the compound at this concentration of agonist is determined by non-linear curve fitting. If the compound acts as a noncompetitive antagonist, an IC50 value is determined by non-linear curve fitting. In the second mode, several fixed concentrations of the disclosed compounds are added to various wells on a plate, followed by a range in concentrations of agonist for each concentration of disclosed compound. The EC50 values for the agonist at each concentration of compound are determined by non-linear curve fitting. A decrease in the EC50 value of the agonist with increasing concentrations of the sample compound (a leftward shift of the agonist concentration-response curve) is an indication of the degree of mGluR4 potentiation at a given concentration of the sample compound. A decrease in the maximal response of the agonist with increasing concentrations of the sample compounds, with or without a rightward shift in agonist potency, is an indication of the degree of noncompetitive antagonism at mGluR4. The second mode also indicates whether the sample compounds also affect the maximum response to mGluR4 to agonists.

Structures are written as SMILES. Counter-ions that a name gives are not always drawn.

T1 sequence (Q14833 33-912): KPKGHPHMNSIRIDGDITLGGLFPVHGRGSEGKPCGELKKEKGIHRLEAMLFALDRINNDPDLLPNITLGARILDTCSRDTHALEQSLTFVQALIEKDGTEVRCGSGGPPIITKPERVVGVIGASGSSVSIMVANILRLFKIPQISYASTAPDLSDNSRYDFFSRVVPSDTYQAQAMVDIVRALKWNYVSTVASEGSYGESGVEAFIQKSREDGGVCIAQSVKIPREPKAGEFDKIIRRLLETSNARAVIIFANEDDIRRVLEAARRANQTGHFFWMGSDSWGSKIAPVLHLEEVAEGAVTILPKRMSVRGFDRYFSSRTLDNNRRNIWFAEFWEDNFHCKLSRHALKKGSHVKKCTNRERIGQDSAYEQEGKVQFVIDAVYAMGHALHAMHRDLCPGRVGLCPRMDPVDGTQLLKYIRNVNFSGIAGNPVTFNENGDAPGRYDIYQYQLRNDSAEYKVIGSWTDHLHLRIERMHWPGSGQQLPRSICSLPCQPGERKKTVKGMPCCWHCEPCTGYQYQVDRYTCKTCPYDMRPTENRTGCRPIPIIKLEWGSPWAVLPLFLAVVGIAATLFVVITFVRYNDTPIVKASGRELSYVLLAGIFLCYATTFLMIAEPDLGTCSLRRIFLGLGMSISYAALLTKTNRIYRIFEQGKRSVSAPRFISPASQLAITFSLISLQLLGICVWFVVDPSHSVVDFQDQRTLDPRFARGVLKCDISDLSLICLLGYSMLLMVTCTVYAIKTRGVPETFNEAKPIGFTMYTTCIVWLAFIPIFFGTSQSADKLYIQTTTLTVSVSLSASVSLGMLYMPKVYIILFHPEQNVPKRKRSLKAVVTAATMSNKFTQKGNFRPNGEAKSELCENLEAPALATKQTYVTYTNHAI

For `O=S(=O)(Nc1ccccc1Br)c1ccc2[nH]c(-c3ccccc3)nc2c1` [Example 1, N-(2-Bromophenyl)-2-phenyl-1H-benzo[d]imidazole-5-sulfonamide], the Emax was determined as 60% and the EC50 came to 499 nM.

As to `O=S(=O)(Nc1ccccc1Cl)c1ccc2[nH]c(-c3ccccc3)nc2c1` [Example 2, N-(2-Chlorophenyl)-2-phenyl-1H-benzo[d]imidazole-5-sulfonamide TFA salt], the Emax was 77% and the EC50 is 353 nM.

On to `O=S(=O)(Nc1ccccc1Cl)c1ccc2[nH]c(-c3ccccn3)nc2c1` [Example 3, N-(2-Chlorophenyl)-2-(pyridin-2-yl)-1H-benzo[d]imidazole-5-sulfonamide], for which the Emax came out at 226% and the EC50 came to 72.3 nM.

For the compound `O=S(=O)(Nc1ccccc1Cl)c1ccc2[nH]c(C3CCCCC3)nc2c1` [Example 4, N-(2-Chlorophenyl)-2-cyclohexyl-1H-benzo[d]imidazole-5-sulfonamide], the Emax is 141% and the EC50 is 1760 nM.

In the case of `O=S(=O)(Nc1ccccc1Cl)c1ccc2[nH]c(-c3cccnc3)nc2c1` [Example 5, N-(2-chlorophenyl)-2-(pyridin-3-yl)-1H-benzo[d]imidazole-5-sulfonamide], the Emax amounted to 84% and the EC50 was 5250 nM.

Regarding `O=S(=O)(Nc1ccccc1Cl)c1ccc2[nH]c(-c3ccsc3)nc2c1` [Example 6, N-(2-Chlorophenyl)-2-(thiophen-3-yl)-1H-benzo[d]imidazole-5-sulfonamide], the Emax came to 111% and the EC50 stood at 361 nM.

In the case of `O=S(=O)(Nc1ccccc1Cl)c1ccc2[nH]c(-c3cnccn3)nc2c1` [Example 7, N-(2-Chlorophenyl)-2-(pyrazin-2-yl)-1H-benzo[d]imidazole-5-sulfonamide], the Emax was found to be 149% and the EC50 is 1490 nM.

As to `O=S(=O)(Nc1ccccc1Cl)c1ccc2[nH]c(-c3cccnn3)nc2c1` [Example 8, N-(2-chlorophenyl)-2-(pyridazin-3-yl)-1H-benzo[d]imidazole-5-sulfonamide TFA salt], the Emax is 204% and the EC50 was determined as 5670 nM.

On to `O=S(=O)(Nc1ccccc1Cl)c1ccc2[nH]c(-c3cccs3)nc2c1` [Example 9, N-(2-Chlorophenyl)-2-(thiophen-2-yl)-1H-benzo[d]imidazole-5-sulfonamide TFA salt], for which the Emax was 103% and the EC50 is 318 nM.

`O=S(=O)(Nc1ccccc1Cl)c1ccc2[nH]c(-c3cscn3)nc2c1` [Example 10, N-(2-Chlorophenyl)-2-(thiazol-4-yl)-1H-benzo[d]imidazole-5-sulfonamide bis TFA salt]: the Emax is 169% and the EC50 turned out to be 310 nM.

Turning to `O=S(=O)(Nc1ccccc1Cl)c1ccc2[nH]c(-c3ccncn3)nc2c1` [Example 11, N-(2-Chlorophenyl)-2-(pyrimidin-4-yl)-1H-benzo[d]imidazole-5-sulfonamide], the Emax was found to be 148% and the EC50 is 2830 nM.

`O=S(=O)(Nc1ccccc1Cl)c1ccc2[nH]c(-c3cccc(Cl)n3)nc2c1` [Example 12, N-(2-Chlorophenyl)-2-(6-chloropyridin-2-yl)-1H-benzo[d]imidazole-5-sulfonamide]: the Emax amounted to 98% and the EC50 amounted to 116 nM.

For `O=S(=O)(Nc1ccccc1Cl)c1ccc2[nH]c(-c3cccc(F)n3)nc2c1` [Example 13, N-(2-Chlorophenyl)-2-(6-fluoropyridin-2-yl)-1H-benzo[d]imidazole-5-sulfonamide], the Emax is 145% and the EC50 was 111 nM.

For the compound `O=S(=O)(Nc1ccccc1Cl)c1ccc2[nH]c(-c3nccs3)nc2c1` [Example 14, N-(2-Chlorophenyl)-2-(thiazol-2-yl)-1H-benzo[d]imidazole-5-sulfonamide], the Emax was determined as 194% and the EC50 turned out to be 770 nM.

Values taken from patent publication US20120184556A1, “SUBSTITUTED ENZOIMIDAZOLESULFONAMIDES AND SUBSTITUTED INDOLESULFONAMIDES AS MGLUR4 POTENTIATORS” (priority 2009, published 2012).
